Patent US8481571B2, “Anti-coronavirus compounds” (Academia Sinica, priority 2004, dated 2013)
pEC50: −log10 of the molar value.

Assays:
[1] = system: severe acute respiratory syndrome virus; assay: organism not typed; type: cell-based; conditions: Vero C1008
[2] = system: Vero E6 cells

**Q.** `Cc1cccc(C)c1OCC(=O)N[C@@H](Cc1ccccc1)C[C@H](O)[C@H](Cc1ccccc1)NC(=O)[C@H](CC(C)C)NC(=O)C1=CCOc2ccc(Cl)cc21` [Compound 34] was tested. Which pEC50 [1] did it give?
**A.** Its pEC50 is 4.00 to 6.07.

**Q.** With `Cc1cccc(C)c1OCC(=O)N[C@@H](Cc1ccccc1)C[C@H](O)[C@H](Cc1ccccc1)NC(=O)[C@H](CC(C)C)NC(=O)c1cc2ccccc2[nH]1` [Compound 29] as the molecule, how does the pEC50 [1] read?
**A.** Its pEC50 is 4.00 to 6.07.

**Q.** With `Cc1cccc(C(=O)N[C@@H](CC(C)C)C(=O)N[C@@H](Cc2ccccc2)[C@@H](O)C[C@H](Cc2ccccc2)NC(=O)COc2c(C)cccc2C)c1` [Compound 27] as the molecule, how does the pEC50 [1] read?
**A.** The pEC50 was 4.00 to 6.07.

**Q.** With `CC(C)=CCC[C@](C)(CO[C@@H]1OC(CO[C@@H]2OC(CO)[C@@H](O)[C@@H](O)C2O)[C@@H](O)[C@@H](O)C1O)C1CC[C@@]2(C)C1C(O)CC1[C@@]3(C)CCC(O[C@@H]4OC(CO)[C@@H](O)[C@@H](O)C4O[C@@H]4OC(CO)[C@@H](O)[C@@H](O)C4O)C(C)(C)C3CC[C@]12C` (stereo partly shown) [Compound 17] as the molecule, how does the pEC50 [1] read?
**A.** The pEC50 was 4.00 to 6.07.

**Q.** `COc1ccc(/C=C/C(=O)N[C@@H](CC(C)C)C(=O)N[C@@H](Cc2ccccc2)[C@@H](O)C[C@H](Cc2ccccc2)NC(=O)COc2c(C)cccc2C)cc1` [Compound 32] was tested. Which pEC50 [1] did it give?
**A.** The pEC50 was 4.00 to 6.07.

**Q.** `COC(=O)[C@H]1[C@H]2C[C@H]3c4[nH]c5ccccc5c4CCN3C[C@@H]2CC[C@@H]1O` [Compound 22] was tested. Which pEC50 [1] did it give?
**A.** The pEC50 was 4.00 to 6.07.

**Q.** `Cc1cccc(C)c1OCC(=O)N[C@@H](Cc1ccccc1)C[C@H](O)[C@H](Cc1ccccc1)NC(=O)[C@H](CC(C)C)NC(=O)c1ccc(C(F)(F)F)cc1` [Compound 31] was tested. Which pEC50 [1] did it give?
**A.** The pEC50 was 4.00 to 6.07.

**Q.** `COC(=O)[C@H]1[C@H]2C[C@H]3c4[nH]c5cc(OC)ccc5c4CCN3C[C@H]2C[C@@H](OC(=O)c2cc(OC)c(OC)c(OC)c2)[C@@H]1OC` [Compound 21] was tested. Which pEC50 [1] did it give?
**A.** Its pEC50 is 4.00 to 6.07.

**Q.** How did the pEC50 [1] turn out when `Cc1cccc(C)c1OCC(=O)N[C@@H](Cc1ccccc1)C[C@H](O)[C@H](Cc1ccccc1)NC(=O)[C@H](CC(C)C)NC(=O)CCNC(=O)OC(C)(C)C` [Compound 33] was run?
**A.** The pEC50 was 4.00 to 6.07.

**Q.** How did the pEC50 [1] turn out when `CC1(C)CC2C3=CCC4[C@@](C)(CCC5[C@@H](O)C(O[C@@H]6OC(CO)[C@@H](O)[C@@H](O)C6O[C@@H]6OC(CO)[C@@H](O)[C@@H](O)C6O)CC[C@@]54C)C3CC[C@@]2(C)[C@H](O)C1` (stereo partly shown) [Compound 18] was run?
**A.** The pEC50 was 4.00 to 6.07.

**Q.** For `COC(=O)CCCN1C[C@H](OCc2ccccc2)[C@@H](OCc2ccccc2)[C@H](OCc2ccccc2)[C@H]1COCc1ccccc1` [Compound 9], which “inhibitory effect on cell growth” value [2] is on record?
**A.** Its value is “none of them exhibited inhibitory effect on cell growth”.

**Q.** What about the pEC50 [1] of the same molecule?
**A.** Its pEC50 is 4.00 to 6.07.

**Q.** With `Cc1cccc(C)c1OCC(=O)N[C@@H](Cc1ccccc1)C[C@H](O)[C@H](Cc1ccccc1)NC(=O)[C@H](CC(C)C)NC(=O)c1ccc([N+](=O)[O-])o1` [Compound 25] as the molecule, how does the pEC50 [1] read?
**A.** Its pEC50 is 4.00 to 6.07.

**Q.** With `Cc1cccc(C)c1OCC(=O)N[C@@H](Cc1ccccc1)C[C@H](O)[C@H](Cc1ccccc1)NC(=O)[C@H](CC(C)C)NC(=O)COc1ccc2ccccc2c1` [Compound 35] as the molecule, how does the pEC50 [1] read?
**A.** The pEC50 was 4.00 to 6.07.

**Q.** With `Cc1cccc(C)c1OCC(=O)N[C@@H](Cc1ccccc1)C[C@H](O)[C@H](Cc1ccccc1)NC(=O)[C@H](CC(C)C)NC(=O)CSc1ccccn1` [Compound 28] as the molecule, how does the pEC50 [1] read?
**A.** Its pEC50 is 4.00 to 6.07.

**Q.** `COC(=O)C1=COC[C@H]2CN3CCc4c([nH]c5ccccc45)[C@@H]3C[C@H]12` [Compound 20] was tested. Which pEC50 [1] did it give?
**A.** The pEC50 was 4.00 to 6.07.

**Q.** Which results are given for `CCCCCCC1=C2C[C@H]3C(C)(C)C[C@@H](OC1=O)[C@@]23C` [Compound 3]?
**A.** inhibitory effect on cell growth [2]: none of them exhibited inhibitory effect on cell growth; pEC50 [1]: 4.00 to 6.07

**Q.** How did the pEC50 [1] turn out when `COC(=O)C1[C@H]2C[C@H]3c4[nH]c5ccccc5c4CCN3C[C@H]2CC[C@@H]1O` (stereo partly shown) [Compound 23] was run?
**A.** The pEC50 was 4.00 to 6.07.

**Q.** How did the “inhibitory effect on cell growth” value [2] turn out when `CCCCCC12C3=C(c4ccccc4)C(=O)O[C@@H]1CC[C@@H]2C3` (stereo partly shown) [Compound 4] was run?
**A.** Its value is “none of them exhibited inhibitory effect on cell growth”.

**Q.** What about the pEC50 [1] of the same molecule?
**A.** The pEC50 was 4.00 to 6.07.

**Q.** How did the pEC50 [1] turn out when `COC(=O)[C@H]1[C@H]2C[C@@H]3c4[nH]c5cc(OC)ccc5c4CCN3C[C@H]2C[C@@H](OC(=O)/C=C/c2cc(OC)c(OC)c(OC)c2)[C@@H]1OC` [Compound 19] was run?
**A.** Its pEC50 is 4.00 to 6.07.

**Q.** For `CC(C)[C@H](NC(=O)OCc1ccccc1)C(=O)N[C@@H](Cc1ccccc1)[C@@H](O)[C@H](O)[C@H](Cc1ccccc1)NC(=O)[C@@H](NC(=O)OC(C)(C)C)C(C)C` [Compound 1], which “inhibitory effect on cell growth” value [2] is on record?
**A.** Its value is “none of them exhibited inhibitory effect on cell growth”.

**Q.** And the pEC50 [1]?
**A.** The pEC50 was 4.00 to 6.07.

**Q.** With `COC(=O)[C@@H]1[C@H]2C[C@H]3c4[nH]c5ccccc5c4CCN3C[C@@H]2CC[C@@H]1O` [Compound 24] as the molecule, how does the pEC50 [1] read?
**A.** Its pEC50 is 4.00 to 6.07.

**Q.** `O[C@H]1[C@H](O)[C@@H](OCc2cccc(F)c2)CNC[C@@H]1OCc1cccc(F)c1` [Compound 15] was tested. Which “inhibitory effect on cell growth” value [2] did it give?
**A.** The value was “none of them exhibited inhibitory effect on cell growth”.

**Q.** What about the pEC50 [1] of the same molecule?
**A.** Its pEC50 is 4.00 to 6.07.

**Q.** With `Cc1cccc(C)c1OCC(=O)N[C@@H](Cc1ccccc1)C[C@H](O)[C@H](Cc1ccccc1)NC(=O)[C@H](CC(C)C)NC(=O)CN1C(=O)CSC1=S` [Compound 30] as the molecule, how does the pEC50 [1] read?
**A.** The pEC50 was 4.00 to 6.07.

**Q.** With `CC1(C)CCC2(C(=O)O)CC[C@@]3(C)C(=CCC4[C@@]5(C)CCC(O[C@@H]6OC(O)[C@@H](O)[C@@H](O)C6O[C@@H]6OC(O)[C@@H](O)[C@@H](O)C6O)C(C)(CO)C5CC[C@]43C)C2C1` (stereo partly shown) [Compound 16] as the molecule, how does the pEC50 [1] read?
**A.** Its pEC50 is 4.00 to 6.07.

**Q.** Which results are given for `CC(C)=CCC[C@](C)(O)[C@H]1CC[C@@H]2[C@@H]1CC[C@H]1[C@@]2(C)CC[C@H]2C(C)(C)C(=O)CC[C@]12C` [Compound 6]?
**A.** inhibitory effect on cell growth [2]: none of them exhibited inhibitory effect on cell growth; pEC50 [1]: 4.00 to 6.07

**Q.** `CC[C@H]1OC(=O)[C@H](C)C(=O)[C@H](C)[C@@H](O[C@@H]2C[C@H](C)C[C@H](N(C)C)[C@H]2O)[C@@](C)(OC)C[C@@H](C)CN(C(=O)CCCn2cc(-c3ccc(C(F)(F)F)cc3)nn2)[C@H](C)[C@@H](O)[C@]1(C)O` [Compound 11] was tested. Which “inhibitory effect on cell growth” value [2] did it give?
**A.** Its value is “none of them exhibited inhibitory effect on cell growth”.

**Q.** What about the pEC50 [1] of the same molecule?
**A.** The pEC50 was 4.00 to 6.07.

**Q.** How did the “inhibitory effect on cell growth” value [2] turn out when `CC(C)[C@H](NC(=O)[C@H](C)NC(=O)OCc1ccccc1)C(=O)N[C@@H](Cc1ccccc1)[C@@H](O)[C@H](O)[C@H](Cc1ccccc1)NC(=O)[C@@H](NC(=O)[C@H](C)NC(=O)OCc1ccccc1)C(C)C` [Compound 2] was run?
**A.** The value was “none of them exhibited inhibitory effect on cell growth”.

**Q.** What about the pEC50 [1] of the same molecule?
**A.** The pEC50 was 4.00 to 6.07.

**Q.** What does the source list for `COC(=O)[C@H]1[C@H]2C[C@@H]3c4[nH]c5cc(OC)ccc5c4CCN3C[C@H]2C[C@@H](OC(=O)c2cc(OC)c(OC)c(OC)c2)[C@@H]1OC` [Compound 13]?
**A.** inhibitory effect on cell growth [2]: none of them exhibited inhibitory effect on cell growth; pEC50 [1]: 4.00 to 6.07
